# Experimental data reported in patent publication US20100009405A1, “Biosynthetic process for the preparation of gallidermin” (priority 2005, published 2010).
# Ends that are not written are not given here.
# Tests used:
# S. gallinarum (pGV5) = assay: Minimum inhibitory concentration of kanamycin used for selection; type: cell-based, Staphylococcus gallinarum; details: B-medium
# Protocol: FIG. 4 is a schematic representation of the strategy employed for the selection of gdmP knock-out strains. Cm: chloramphenicol; Kan: kanamycin; MIC: minimum inhibitory concentration; R: resistance; S: sensitivity;
# A first S. gallinarum (pGV5) culture was started inoculating 10 ml kanamycin-supplemented ([…]) B-medium with a single colony of a transformed cell. Culture was incubated shaking with 225 rpm at 30° C., a temperature that allowed pGV5 to replicate as free plasmid (permissive temperature), until late stationary phase (16h). With this culture, new cultures were inoculated (1:100) and incubated shaking with 225 rpm at 30° C. into the late stationary phase (16 h). […] This step was repeated once, before diluting the cultures 1:100 into 100 ml B-medium containing no antibiotic. Growth at 40° C. was extended for another 24 hours.
# sensitive test strain = assay: Test-disc bioassay of antibacterial activity of gallidermin preparations; type: cell-based; details: dilutions of stock solutions on test discs, same concentrations
# Protocol: FIGS. 12A and B show the result of the proteolytic (trypsin) conversion of pregallidermins into gallidermin. […] Dilutions for a stock solution of either compound were applied onto test discs and incubated in the presence of a sensitive test strain. […] Pre-gallidermins (1.09 g/l) were incubated with trypsin (0.2 g/l) 1 h, RT, pH 6.5,
# Of all proteases examined, only trypsin appeared to be suitable for a commercial and industrialised process. […] We have disclosed the feasibility to selectively cleave pre-gallidermins into mature gallidermin using serine-type proteases and trypsin in particular. While we have employed soluble enzyme preparations, alternatives, such as immobilized enzyme preparations, could be used instead. This would facilitate the repetitive use of such enzymes and avoid possible contaminations of the final product by trypsin, even though, trypsin is generally regarded as safe (GRAS).
Molecule,MIC value (S. gallinarum (pGV5)) [µg/mL],bioactivity compared with gallidermin isolated from the wild-type strain (sensitive test strain)
NC[C@H]1O[C@H](O[C@H]2[C@H](O)[C@@H](O[C@H]3O[C@H](CO)[C@@H](O)[C@H](N)[C@H]3O)[C@H](N)C[C@@H]2N)[C@H](O)[C@@H](O)[C@@H]1O [kanamycin],7500,–
"gallidermin [in-situ activated gallidermin] (IASKFLCTPGCAKTGSFNSYCC; also: lantibiotic with dehydroamino residues and thioether bridges, places not given here, in-situ activated form; UniProt P21838 31-52, looked up)",–,same bioactivity
